{"source": "patent US9725445B2", "about": "“Cycloalkyl nitrile pyrazolo pyridones as Janus kinase inhibitors” (Merck Sharp & Dohme Corp., priority 2013, dated 2017)", "key": {"JAK1": {"molecular_target": "JAK1 (Homo sapiens (Human), UniProt P23458)", "sequence (P23458 875-1153)": "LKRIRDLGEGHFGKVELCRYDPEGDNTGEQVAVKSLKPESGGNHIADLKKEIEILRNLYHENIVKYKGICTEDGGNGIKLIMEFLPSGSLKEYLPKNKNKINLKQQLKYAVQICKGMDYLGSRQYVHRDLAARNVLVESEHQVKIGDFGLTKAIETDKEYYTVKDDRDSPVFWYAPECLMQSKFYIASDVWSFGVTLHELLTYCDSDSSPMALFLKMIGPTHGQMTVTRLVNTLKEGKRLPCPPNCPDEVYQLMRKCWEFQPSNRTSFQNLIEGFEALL", "experiment": "Jak biochemical HTRF assay, JAK1", "conditions": "HTRF biochemical assay, recombinant GST-tagged catalytic domain; read-out: JAK1 IC50"}, "JAK2": {"molecular_target": "JAK2 (Homo sapiens (Human), UniProt O60674)", "sequence (O60674 849-1124)": "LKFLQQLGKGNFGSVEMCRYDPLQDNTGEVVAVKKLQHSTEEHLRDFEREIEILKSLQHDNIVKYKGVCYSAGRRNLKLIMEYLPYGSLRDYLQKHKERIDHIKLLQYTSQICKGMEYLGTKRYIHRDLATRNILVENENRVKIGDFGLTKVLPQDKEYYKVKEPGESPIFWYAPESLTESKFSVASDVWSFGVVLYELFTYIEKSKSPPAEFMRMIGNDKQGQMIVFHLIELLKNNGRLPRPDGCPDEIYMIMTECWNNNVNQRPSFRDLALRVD", "experiment": "Jak biochemical HTRF assay, JAK2", "conditions": "HTRF biochemical assay, recombinant GST-tagged catalytic domain; read-out: JAK2 IC50"}}}
{"compound": "C[C@H](N[C@H]1CC[C@H](n2nc(Nc3ccc(OC(F)(F)F)cc3)c3c(=O)[nH]ccc32)[C@@H](C#N)C1)C1CC1", "note": "[Example 5-28, (1S,2S,5S)-5-(((S)-1-cyclopropylethyl)amino)-2-(4-oxo-3-((4-(trifluoromethoxy)phenyl)amino)-4,5-dihydro-1H-pyrazolo[4,3-c]pyridin-1-yl)cyclohexanecarbonitrile]", "values": [{"measurement": "IC50", "setting": "JAK1", "value": 0.5, "unit": "nM"}, {"measurement": "IC50", "setting": "JAK2", "value": 37, "unit": "nM"}]}
{"compound": "N#C[C@H]1CCCC[C@@H]1n1nc(Nc2ccc3c(c2)CNCC3)c2c(=O)[nH]ccc21", "note": "[Example 3-157, (1S,2S)-2-[4-oxo-3-(1,2,3,4-tetrahydroisoquinolin-7-ylamino)-4,5-dihydro-1H-pyrazolo[4,3-c]pyridin-1-yl]cyclohexanecarbonitrile]", "values": [{"measurement": "IC50", "setting": "JAK1", "value": 0.45, "unit": "nM"}, {"measurement": "IC50", "setting": "JAK2", "value": 0.88, "unit": "nM"}]}
{"compound": "CS(=O)(=O)c1ccc(Nc2nn([C@H]3CCCC[C@@H]3C#N)c3cc[nH]c(=O)c23)cc1CN", "note": "[Example 6-4, (1S,2S)-2-(3-((3-(aminomethyl)-4-(methylsulfonyl)phenyl)amino)-4-oxo-4,5-dihydro-1H-pyrazolo[4,3-c]pyridin-1-yl)cyclohexanecarbonitrile]", "values": [{"measurement": "IC50", "setting": "JAK1", "value": 1, "unit": "nM"}, {"measurement": "IC50", "setting": "JAK2", "value": 2.9, "unit": "nM"}]}
{"compound": "CC1(C)C(=O)Nc2cc(Nc3nn([C@H]4CCCC[C@@H]4C#N)c4cc[nH]c(=O)c34)ccc21", "note": "[Example 15-7, (1S,2S)-2-{3-[(3,3-dimethyl-2-oxo-2,3-dihydro-1H-indol-6-yl)amino]-4-oxo-4,5-dihydro-1H-pyrazolo[4,3-c]pyridin-1-yl}cyclohexanecarbonitrile]", "values": [{"measurement": "IC50", "setting": "JAK1", "value": 0.11, "unit": "nM"}, {"measurement": "IC50", "setting": "JAK2", "value": 1.4, "unit": "nM"}]}
{"compound": "CN(C)C(=O)c1ccc(Nc2nn([C@H]3CCCC[C@@H]3C#N)c3cc[nH]c(=O)c23)cc1C1CC1", "note": "[Example 3-69, 4-({1-[(1S,2S)-2-cyanocyclohexyl]-4-oxo-4,5-dihydro-1H-pyrazolo[4,3-c]pyridin-3-yl}amino)-2-cyclopropyl-N,N-dimethylbenzamide]", "values": [{"measurement": "IC50", "setting": "JAK1", "value": 2.1, "unit": "nM"}, {"measurement": "IC50", "setting": "JAK2", "value": 5.7, "unit": "nM"}]}
{"compound": "Cn1ccc(NC(=O)Cc2cccc(Nc3nn([C@H]4CCCC[C@@H]4C#N)c4cc[nH]c(=O)c34)c2)n1", "note": "[Example 3-11, 2-[3-({1-[(1S,2S)-2-cyanocyclohexyl]-4-oxo-4,5-dihydro-1H-pyrazolo[4,3-c]pyridin-3-yl}amino)phenyl]-N-(1-methyl-1H-pyrazol-3-yl)acetamide]", "values": [{"measurement": "IC50", "setting": "JAK1", "value": 0.41, "unit": "nM"}, {"measurement": "IC50", "setting": "JAK2", "value": 3.3, "unit": "nM"}]}
{"compound": "CN1Cc2ccc(Nc3nn([C@H]4CCCC[C@@H]4C#N)c4cc[nH]c(=O)c34)cc2C1", "note": "[Example 3-64, (1S,2S)-2-{3-[(2-methyl-2,3-dihydro-1H-isoindol-5-yl)amino]-4-oxo-4,5-dihydro-1H-pyrazolo[4,3-c]pyridin-1-yl}cyclohexanecarbonitrile]", "values": [{"measurement": "IC50", "setting": "JAK1", "value": 0.39, "unit": "nM"}, {"measurement": "IC50", "setting": "JAK2", "value": 1.6, "unit": "nM"}]}
{"compound": "CC(C)(C)N1Cc2cc(Nc3nn([C@H]4CCCC[C@@H]4C#N)c4cc[nH]c(=O)c34)ccc2C1=O", "note": "[Example 15-20, (1S,2S)-2-{3-[(2-tert-butyl-1-oxo-2,3-dihydro-1H-isoindol-5-yl)amino]-4-oxo-4,5-dihydro-1H-pyrazolo[4,3-c]pyridin-1-yl}cyclohexanecarbonitrile]", "values": [{"measurement": "IC50", "setting": "JAK1", "value": 0.069, "unit": "nM"}, {"measurement": "IC50", "setting": "JAK2", "value": 0.48, "unit": "nM"}]}
{"compound": "Cc1cc(Nc2nn([C@@H]3CCCCC[C@H]3C#N)c3cc[nH]c(=O)c23)ccc1C(O)C(F)(F)F", "note": "(single isomer, unassigned) [Example 15-68, (1R,2R or 1S,2S)-2-[3-({3-methyl-4-[(1R or 1S)-2,2,2-trifluoro-1-hydroxyethyl]phenyl}amino)-4-oxo-4,5-dihydro-1H-pyrazolo[4,3-c]pyridin-1-yl]cycloheptanecarbonitrile]", "values": [{"measurement": "IC50", "setting": "JAK1", "value": 0.26, "unit": "nM"}, {"measurement": "IC50", "setting": "JAK2", "value": 1.2, "unit": "nM"}]}
{"compound": "CC1c2cc(Nc3nn([C@H]4CCCC[C@@H]4C#N)c4cc[nH]c(=O)c34)ccc2S(=O)(=O)N1C", "note": "(single isomer, unassigned) [Example 3-126, (1S,2S)-2-(3-(((R or S)-2,3-dimethyl-1,1-dioxido-2,3-dihydrobenzo[d]isothiazol-5-yl)amino)-4-oxo-4,5-dihydro-1H-pyrazolo[4,3-c]pyridin-1-yl)cyclohexanecarbonitrile]", "values": [{"measurement": "IC50", "setting": "JAK1", "value": 0.077, "unit": "nM"}, {"measurement": "IC50", "setting": "JAK2", "value": 2.5, "unit": "nM"}]}
{"compound": "CCN1Cc2ccc(Nc3nn([C@H]4CCCC[C@@H]4C#N)c4cc[nH]c(=O)c34)cc2C1", "note": "[Example 3-76, (1S,2S)-2-{3-[(2-ethyl-2,3-dihydro-1H-isoindol-5-yl)amino]-4-oxo-4,5-dihydro-1H-pyrazolo[4,3-c]pyridin-1-yl}cyclohexanecarbonitrile]", "values": [{"measurement": "IC50", "setting": "JAK1", "value": 0.41, "unit": "nM"}, {"measurement": "IC50", "setting": "JAK2", "value": 2.1, "unit": "nM"}]}
{"compound": "CC(=O)NCc1cc(Nc2nn([C@H]3CCCC[C@@H]3C#N)c3cc[nH]c(=O)c23)ccc1S(=O)(=O)N(C)C", "note": "[Example 3-40, N-[5-({1-[(1S,2S)-2-cyanocyclohexyl]-4-oxo-4,5-dihydro-1H-pyrazolo[4,3-c]pyridin-3-yl}amino)-2-(dimethylsulfamoyl)benzyl]acetamide]", "values": [{"measurement": "IC50", "setting": "JAK1", "value": 0.1, "unit": "nM"}, {"measurement": "IC50", "setting": "JAK2", "value": 0.79, "unit": "nM"}]}
{"compound": "N#C[C@H]1CCCC[C@@H]1n1nc(Nc2ccc3c(c2)CC2(CCCCC2)S3(=O)=O)c2c(=O)[nH]ccc21", "note": "[Example 21-2, (1S,2S)-2-(3-((1,1-Dioxido-3H-spiro[benzo[b]thiophene-2,1′-cyclohexan]-5-yl)amino)-4-oxo-4,5-dihydro-1H-pyrazolo[4,3-c]pyridin-1-yl)cyclohexanecarbonitrile]", "values": [{"measurement": "IC50", "setting": "JAK1", "value": 0.12, "unit": "nM"}, {"measurement": "IC50", "setting": "JAK2", "value": 0.38, "unit": "nM"}]}
{"compound": "COCCNS(=O)(=O)c1ccc(Nc2nn([C@H]3CCCC[C@@H]3C#N)c3cc[nH]c(=O)c23)cc1", "note": "[Example 3-21, 4-({1-[(1S,2S)-2-cyanocyclohexyl]-4-oxo-4,5-dihydro-1H-pyrazolo[4,3-c]pyridin-3-yl}amino)-N-(2-methoxyethyl)benzenesulfon-amide]", "values": [{"measurement": "IC50", "setting": "JAK1", "value": 0.17, "unit": "nM"}, {"measurement": "IC50", "setting": "JAK2", "value": 0.79, "unit": "nM"}]}
{"compound": "COCC(C)(C)N1Cc2cc(Nc3nn([C@H]4CCCC[C@@H]4C#N)c4cc[nH]c(=O)c34)ccc2S1(=O)=O", "note": "[Example 3-160, (1S,2S)-2-(3-{[2-(2-methoxy-1,1-dimethylethyl)-1,1-dioxido-2,3-dihydro-1,2-benzisothiazol-5-yl]amino}-4-oxo-4,5-dihydro-1H-pyrazolo[4,3-c]pyridin-1-yl)cyclohexanecarbonitrile]", "values": [{"measurement": "IC50", "setting": "JAK1", "value": 0.049, "unit": "nM"}, {"measurement": "IC50", "setting": "JAK2", "value": 0.19, "unit": "nM"}]}
{"compound": "N#C[C@H]1CCCC[C@@H]1n1nc(Nc2ccc(C3CCNCC3)cc2)c2c(=O)[nH]ccc21", "note": "[Example 15-25, (1S,2S)-2-{4-oxo-3-[(4-piperidin-4-ylphenyl)amino]-4,5-dihydro-1H-pyrazolo[4,3-c]pyridin-1-yl}cyclohexanecarbonitrile]", "values": [{"measurement": "IC50", "setting": "JAK1", "value": 0.48, "unit": "nM"}, {"measurement": "IC50", "setting": "JAK2", "value": 0.98, "unit": "nM"}]}
{"compound": "CCNC(c1ccc(Nc2nn([C@H]3CCC[C@@H]3C#N)c3cc[nH]c(=O)c23)cc1)C(F)(F)F", "note": "(single isomer, unassigned) [Example 3-113, (1S,2S)-2-[3-({4-[(1R or 1S)-1-(ethylamino)-2,2,2-trifluoroethyl]phenyl}amino)-4-oxo-4,5-dihydro-1H-pyrazolo[4,3-c]pyridin-1-yl]cyclopentanecarbonitrile]", "values": [{"measurement": "IC50", "setting": "JAK1", "value": 0.15, "unit": "nM"}, {"measurement": "IC50", "setting": "JAK2", "value": 0.31, "unit": "nM"}]}
{"compound": "CC(C)[C@@H](C)N1Cc2ccc(Nc3nn([C@H]4CCCC[C@@H]4C#N)c4cc[nH]c(=O)c34)cc2C1", "note": "[Example 3-149, (1S,2S)-2-[3-({2-[(1R)-1,2-dimethylpropyl]-2,3-dihydro-1H-isoindol-5-yl}amino)-4-oxo-4,5-dihydro-1H-pyrazolo[4,3-c]pyridin-1-yl]cyclohexanecarbonitrile]", "values": [{"measurement": "IC50", "setting": "JAK1", "value": 0.48, "unit": "nM"}, {"measurement": "IC50", "setting": "JAK2", "value": 0.61, "unit": "nM"}]}
{"compound": "N#C[C@H]1CCCC[C@@H]1n1nc(Nc2ccc3c(c2)CN([C@H]2CC[C@H](C(=O)O)CC2)S3(=O)=O)c2c(=O)[nH]ccc21", "note": "[Example 16-3, (1R,4R)-4-(5-((1-((1S,2S)-2-cyanocyclohexyl)-4-oxo-4,5-dihydro-1H-pyrazolo[4,3-c]pyridin-3-yl)amino)-1,1-dioxidobenzo[d]isothiazol-2(3H)-yl)cyclohexanecarboxylic acid]", "values": [{"measurement": "IC50", "setting": "JAK1", "value": 0.059, "unit": "nM"}, {"measurement": "IC50", "setting": "JAK2", "value": 0.14, "unit": "nM"}]}
{"compound": "CC(C)(C)N1Cc2cc(Nc3nn([C@H]4CCC[C@@H]4C#N)c4cc[nH]c(=O)c34)ccc2S1(=O)=O", "note": "[Example 3-100, (1S,2S)-2-{3-[(2-tert-butyl-1,1-dioxido-2,3-dihydro-1,2-benzisothiazol-5-yl)amino]-4-oxo-4,5-dihydro-1H-pyrazolo[4,3-c]pyridin-1-yl}cyclopentanecarbonitrile]", "values": [{"measurement": "IC50", "setting": "JAK1", "value": 0.043, "unit": "nM"}, {"measurement": "IC50", "setting": "JAK2", "value": 0.28, "unit": "nM"}]}
{"compound": "CC1c2cc(Nc3nn([C@H]4CCCC[C@@H]4C#N)c4cc[nH]c(=O)c34)ccc2S(=O)(=O)N1C", "note": "(single isomer, unassigned) [Example 3-127, (1S,2S)-2-(3-(((R or S)-2,3-dimethyl-1,1-dioxido-2,3-dihydrobenzo[d]isothiazol-5-yl)amino)-4-oxo-4,5-dihydro-1H-pyrazolo[4,3-c]pyridin-1-yl)cyclohexanecarbonitrile]", "values": [{"measurement": "IC50", "setting": "JAK1", "value": 0.33, "unit": "nM"}, {"measurement": "IC50", "setting": "JAK2", "value": 2.6, "unit": "nM"}]}
{"compound": "CC(C)(C)N1Cc2cc(Nc3nn([C@H]4CCCC[C@@H]4C#N)c4cc[nH]c(=O)c34)ccc2S1(=O)=O", "note": "[Example 3-53, (1S,2S)-2-{3-[(2-tert-butyl-1,1-dioxido-2,3-dihydro-1,2-benzisothiazol-5-yl)amino]-4-oxo-4,5-dihydro-1H-pyrazolo[4,3-c]pyridin-1-yl}cyclohexanecarbonitrile]", "values": [{"measurement": "IC50", "setting": "JAK1", "value": 0.039, "unit": "nM"}, {"measurement": "IC50", "setting": "JAK2", "value": 0.19, "unit": "nM"}]}
{"compound": "CC1(N2Cc3cc(Nc4nn([C@H]5CCCC[C@@H]5C#N)c5cc[nH]c(=O)c45)ccc3S2(=O)=O)CCOCC1", "note": "[Example 15-64, (1S,2S)-2-(3-{[2-(4-methyltetrahydro-2H-pyran-4-yl)-1,1-dioxido-2,3-dihydro-1,2-benzisothiazol-5-yl]amino}-4-oxo-4,5-dihydro-1H-pyrazolo[4,3-c]pyridin-1-yl)cyclohexanecarbonitrile]", "values": [{"measurement": "IC50", "setting": "JAK1", "value": 0.069, "unit": "nM"}, {"measurement": "IC50", "setting": "JAK2", "value": 0.17, "unit": "nM"}]}
{"compound": "N#C[C@H]1CCCC[C@@H]1n1nc(Nc2ccc3c(c2)CN(CC2CCCC2)C3)c2c(=O)[nH]ccc21", "note": "[Example 3-162, (1S,2S)-2-(3-{[2-(cyclopentylmethyl)-2,3-dihydro-1H-isoindol-5-yl]amino}-4-oxo-4,5-dihydro-1H-pyrazolo[4,3-c]pyridin-1-yl)cyclohexanecarbonitrile]", "values": [{"measurement": "IC50", "setting": "JAK1", "value": 0.33, "unit": "nM"}, {"measurement": "IC50", "setting": "JAK2", "value": 0.92, "unit": "nM"}]}
